≈ marks a conversion by molar mass, not a printed value.
Assays:
A549 [1] = assay: Antiproliferative activity against human A549 cells assessed as inhibition of cell growth at 0.01 uM measured after 72 hrs by MTT assay relative to control; type: functional
A549 [2] = assay: Antiproliferative activity against human A549 cells assessed as inhibition of cell growth at 0.1 uM measured after 72 hrs by MTT assay relative to control; type: functional
A549 [3] = assay: Antiproliferative activity against human A549 cells assessed as inhibition of cell growth at 1 uM measured after 72 hrs by MTT assay relative to control; type: functional
K562 = assay: Antiproliferative activity against human K562 cells assessed as inhibition of cell growth measured after 72 hrs by MTT assay; type: functional, cell-based; conditions: K562, 72 h
MDA-MB-231 = assay: Antiproliferative activity against human MDA-MB-231 cells assessed as inhibition of cell growth measured after 72 hrs by MTT assay; type: functional, cell-based; conditions: MDA-MB-231, 72 h
HepG2 = assay: Antiproliferative activity against human HepG2 cells assessed as inhibition of cell growth measured after 72 hrs by MTT assay; type: functional, cell-based; conditions: HepG2, 72 h
A549 [4] = assay: Antiproliferative activity against human A549 cells assessed as inhibition of cell growth measured after 72 hrs by MTT assay; type: functional, cell-based; conditions: A549, 72 h
[5] = Antiproliferative activity against human HFL1 cells assessed as inhibition of cell growth measured after 72 hrs by MTT assay; type: toxicity, cell-based
[6] = Metabolic stability in mouse liver microsomes assessed as half life at 100 uM measure upto 60 mins in presence of NADPH by LC-MS/MS analysis; type: ADME, Microsome
H22 = assay: Antitumor activity against mouse H22 cells allografted in mouse model assessed as tumor growth inhibition at 20 mg/kg,iv administered once daily for 3 weeks relative to control; type: functional; conditions: H22, 504 h, read-out: TGI
[7] = Metabolic stability in mouse plasma assessed as compound remaining at 1 uM and measured at 3 hrs by LC-MS/MS analysis; type: ADME, cell-free; conditions: read-out: Stability
A549/TR = assay: Antiproliferative activity against human A549/Taxol cells assessed as inhibition of cell growth measured after 72 hrs by MTT assay; type: functional, cell-based
[8] = Metabolic stability in mouse plasma assessed as half life at 1 uM and measured upto 3 hrs by LC-MS/MS analysis; type: ADME, cell-free
[9] = Metabolic stability in mouse liver microsomes assessed as intrinsic clearance at 100 uM measure upto 60 mins in presence of NADPH by LC-MS/MS analysis; type: ADME, Microsome; conditions: 1 h
[10] = Aqueous solubility of the compound by HPLC analysis; type: physicochemical; conditions: aqueous (not further specified)
[11] = Resistance index, ratio of IC50 for antiproliferative activity against human A549/Taxol cells to IC50 for antiproliferative activity against human A549 cells; type: functional

Row | SMILES | inhibition at 0.01 µM (A549 [1]) [%] | inhibition at 0.1 µM (A549 [2]) [%] | inhibition at 1 µM (A549 [3]) [%] | IC50 (K562) [nM] | IC50 (MDA-MB-231) [nM] | IC50 (HepG2) [nM] | IC50 (A549 [4]) [nM] | IC50 at 72 h [5] [nM] | also measured
1 | COc1cc2c(c(OC)c1OC)C(=O)CCN2c1ccc(C)cc1 | 21 | 41.7 | 64.1 | – | – | – | – | – | –
2 | COc1ccc(CN2CCC(=O)c3c2cc(OC)c(OC)c3OC)cc1O | 13 | 13 | 17.7 | – | – | – | – | – | –
3 | COc1cc2c(c(OC)c1OC)C(=O)CCN2c1ccc(O)cc1 | 9.57 | 15.1 | 29.9 | – | – | – | – | – | –
4 | COc1cc2c(c(OC)c1OC)C(=O)CCN2Cc1ccc(C(F)(F)F)cc1 | 6.29 | 22.1 | 28.6 | – | – | – | – | – | –
5 | COc1cc(N2CCC(=O)c3cc4c(cc32)OCO4)cc(OC)c1OC | 19.9 | 29.2 | 46.6 | – | – | – | – | – | –
6 | COc1cc2c(c(OC)c1OC)C(=O)CCN2c1ccc2c(ccn2C)c1 | 54.3 | 78.6 | 79.2 | 25 | 102 | 72 | 11 | 102 | –
7 | COc1cc2c(c(OC)c1OC)C(=O)CCN2c1ccccc1 | 6.13 | 12.3 | 31.1 | – | – | – | – | – | –
8 | COc1cc2c(c(OC)c1OC)C(=O)CCN2c1c[nH]c2ccccc12 | 16.6 | 31.4 | 51.7 | – | – | – | – | – | –
9 | COc1cc2c(c(OC)c1OC)C(=O)CCN2Cc1ccccc1 | 8.31 | 6.72 | 23.2 | – | – | – | – | – | –
10 | COc1ccc(/C=C\c2cc(OC)c(OC)c(OC)c2)cc1O [COMBRETASTATIN A4] | 76.9 | 76.2 | 78.4 | 4 | 20 | 33 | 11 | 91 | half-life at 100 µM [6]: < 5 min; inhibition in vivo at 20 mg/kg (H22): 59.2%; remaining at 3 h, 1 µM [7]: 97.8%; IC50 (A549/TR): 76 nM; half-life at 1 µM [8]: > 3 h; CLH [9]: > 277 µL/min/mg; solubility [10]: 0.96 µg/mL (≈ 3.03 µM)
11 | COc1cc2c(c(OC)c1OC)C(=O)CCN2c1ccc2[nH]ccc2c1 | 30.1 | 69 | 72 | 182 | 912 | 855 | 305 | 2980 | –
12 | CC(=O)Oc1ccc(C(c2ccc(OC(C)=O)cc2)c2ccccn2)cc1 [BISACODYL] | – | – | – | – | – | – | – | – | remaining at 3 h, 1 µM [7]: 0.003%
13 | COc1cc2c(c(OC)c1OC)C(=O)CCN2c1ccc(O)c(O)c1 | 21.9 | 22.9 | 35 | – | – | – | – | – | –
14 | COc1cc(N2CCC(=O)c3c2cc(OC)c(OC)c3OC)cc(OC)c1OC | 12.3 | 19.4 | 28.4 | – | – | – | – | – | –
15 | COc1cc2c(c(OC)c1OC)C(=O)CCN2c1ccc2cc[nH]c2c1 | 22.4 | 38.2 | 71.1 | 902 | 2890 | 2310 | 288 | 9750 | –
16 | C[C@]12CC[C@H]3[C@@H](CCC4=CC(=O)CC[C@@]43C)[C@@H]1CC[C@@H]2O [TESTOSTERONE] | – | – | – | – | – | – | – | – | CLH [9]: 436 µL/min/mg
17 | COc1ccc2c(c1)C(=O)CCN2c1ccc(OC)c(O)c1 | 32.5 | 40.2 | 66.6 | – | – | – | – | – | –

Row | SMILES | inhibition at 0.01 µM (A549 [1]) [%] | inhibition at 0.1 µM (A549 [2]) [%] | inhibition at 1 µM (A549 [3]) [%] | IC50 (K562) [nM] | IC50 (MDA-MB-231) [nM] | IC50 (HepG2) [nM] | IC50 (A549 [4]) [nM] | IC50 at 72 h [5] [nM] | also measured
18 | COc1cc2c(c(OC)c1OC)C(=O)CCN2c1ccc2c(c1)OCO2 | 22.6 | 44.8 | 65.3 | – | – | – | – | – | –
19 | COc1cc2c(c(OC)c1OC)C(=O)CCN2c1ccc2ccn(C)c2c1 | 13.2 | 53.4 | 61 | 147 | 1140 | 648 | 170 | 2760 | –
20 | COc1cc2c(c(OC)c1OC)C(=O)CCN2Cc1ccc(F)cc1 | 12 | 16.3 | 32.1 | – | – | – | – | – | –
21 | COc1cc2c(cc1O)N(c1cc(OC)c(OC)c(OC)c1)CCC2=O | 33.5 | 45.6 | 54.4 | – | – | – | – | – | –
22 | COc1ccc(N2CCC(=O)c3c2cc(OC)c(OC)c3OC)cn1 | 18.8 | 30.4 | 45.3 | – | – | – | – | – | –
23 | COc1cc2c(c(OC)c1OC)C(=O)CCN2c1cccc2[nH]ccc12 | 11.6 | 31.2 | 35.9 | – | – | – | – | – | –
24 | COc1ccc(N2CCC(=O)c3cc4c(cc32)OCO4)cc1O | 12.7 | 14.3 | 28 | – | – | – | – | – | –
25 | COc1cc2c(c(OC)c1OC)C(=O)CCN2c1ccc2c(c1)OCCO2 | 35.6 | 44.9 | 72.4 | 81 | 237 | 163 | 216 | 303 | –
26 | COc1ccc(N2CCCc3c2cc(OC)c(OC)c3OC)cc1O | 35 | 45 | 81 | 297 | 1060 | 668 | 276 | 2660 | –
27 | COc1ccc(N2CCC(=O)c3cc(OC)c(OC)cc32)cc1O | 20.4 | 44.2 | 73.3 | 226 | 902 | 672 | 280 | 3300 | –
28 | COc1cc2c(c(OC)c1OC)C(=O)CCN2c1cccc2c1ccn2C | 19.2 | 56 | 74.2 | 7 | 33 | 21 | 63 | 99 | –
29 | COc1ccc(N2CCC(=O)c3c2cc(OC)c(OC)c3OC)cc1OC | 11 | 17.6 | 41 | – | – | – | – | – | –
30 | CC(=O)O[C@H]1C(=O)[C@@]2(C)[C@H]([C@H](OC(=O)c3ccccc3)[C@]3(O)C[C@H](OC(=O)[C@H](O)[C@@H](NC(=O)c4ccccc4)c4ccccc4)C(C)=C1C3(C)C)[C@]1(OC(C)=O)CO[C@@H]1C[C@@H]2O [PACLITAXEL] | – | – | – | – | – | – | 22 | – | IC50 (A549/TR): 602 nM; Ratio IC50 [11]: 27.36
31 | COc1ccc(N2CCC(=O)c3ccccc32)cc1O | 38.2 | 54.7 | 58.5 | – | – | – | – | – | –
32 | COc1ccc(N2CCC(=O)c3c2cc(OC)c(OC)c3OC)cc1 | 34 | 69.3 | 74.5 | 34 | 107 | 77 | 72 | 370 | –
33 | COc1cc2c(c(OC)c1OC)C(=O)CCN2c1cccc(O)c1 | 15.8 | 36.8 | 50.1 | – | – | – | – | – | –
34 | COc1ccc(N2CCC(=O)c3c2cc(OC)c(OC)c3OC)cc1O | 43.9 | 68.3 | 68.4 | 30 | 96 | 32 | 34 | 284 | –
